# From PMC7486940, “Pre-symptomatic Caspase-1 inhibitor delays cognitive decline in a mouse model of Alzheimer disease and aging” (Nature Communications, 2020)
# Key:
# [1] = test system: Nlrp1, Nlrp3, Asc, Casp1, Casp6, Casp11, Casp3; experiment: inflammasome and caspase expression (PCR, Casp1 western blot); assay type: in vivo, mouse
# Protocol: (§1) VX-765 (Adooq Bioscience, Irvine, CA, USA) was dissolved 5 mg • ml^−1 in 20% cremophor in dH2O[60] (Sigma-Aldrich, ON, Canada) and administered IPWT and J20 mice received three injections per week of either 50 mg • kg^−1 VX-765 or 20% cremophor vehicle for 4 weeks between 2 and 3 months of age. Mice were longitudinally followed starting 4 weeks after the last injection [4-week washout (WO)], then every other month at 12- and 20-week WO (6 and 8 months of age, respectively). Intermediate 8- and 16-week WO periods were also looked at with a smaller number of mice. After each WO period, animals were randomly chosen, independent of behavioural performance, for sacrifice and assigned to either histological or biochemical analysis (Fig. 2a).
# Twenty to sixty micrograms of protein or 16 μl of precipitated protein from culture medium were separated on SDS-PAGE or 4–12% NuPAGE Bis-Tris gels (Invitrogen, Carlsbad, CA, USA) with MES buffer (Invitrogen) and transferred onto PVDF membranes (Bio-Rad) according to the manufacturer’s instructions. Membranes were probed with the following antibodies: 1:1000 mouse anti-Aβ1-16 (6E10) (BioLegend, CA, USA), 1:2000 rabbit anti-APP C-terminus (A8717) (Sigma-Aldrich), 1:1000 rabbit anti-neprilysin (Nep, Abcam, ON, Canada), 1:500 rabbit anti-insulin degrading enzyme (IDE, Abcam), 1:3000 rabbit anti-GFAP (Dako), 1:1000 rabbit anti-IL-1β (Abcam), 1:1000 rat anti-Caspase-1 (clone 4B4.2.1, kindly provided by Genentech, San Francisco, CA, USA) and 1:1000 mouse anti-β-actin (Sigma-Aldrich). […] Signals were visualized with the ImageQuant LAS 4000 imaging system and densitometric analyses were performed with Image Gauge analysis software 3.0 (Fujifilm USA, NY, USA). Protein extracts from three independent mice in each group were run together on each blot. Protein levels were normalized to β-actin and expressed as a percentage relative to the vehicle-treated WT group, except for APP which was compared to the vehicle-treated J20 group. Representative full blots are shown in the Source data file. […]
# Iba1-positive microglia = Iba1-positive microglia quantification and morphology (immunohistochemistry); assay type: in vivo, mouse
# Protocol: as §1
# (§2) Mice for immunohistochemistry were isoflurane anesthetized and perfused with ice-cold 4% paraformaldehyde in 0.1 M PBS (Sigma-Aldrich). Brains were post-fixed overnight in 10% neutral-buffered formalin (ThermoFisher Scientific, ON, Canada) and transferred to 70% ethanol for paraffin embedding and sectioning at 4 μm. Tissue slides underwent heat-induced antigen retrieval with citrate or EDTA buffer. Immunostaining was performed using the Dako Autostainer Plus slide processor and EnVision Flex system (Dako, ON, Canada). Sections were peroxidase treated, blocked in Serum-Free Protein Block, and immunostained with the following antibodies: 1:2000 rabbit anti-Iba1 (Wako, VA, USA), 1:500 rat anti-CD68 (clone FA-11, Bio-Rad, Hercules, CA, USA), 1:8000 rabbit anti-GFAP (Dako) and 1:2000 rabbit anti-Aβ1-40 (F25276, laboratory developed). CD68 antibody required an additional rabbit anti-rat IgG/HRP secondary reagent (Dako) incubation. […] Sections were digitally scanned with MIRAX SCAN (Zeiss, ON, Canada) and used for subsequent analyses.
# (§3) Iba1-positive microglia were quantified using a modified version of an area-specific counting frame. The number of Iba1-positive cells per mm^3 in the anterior CA1 region and cortex was estimated across four sections, spaced 60 μm apart. Microglial activation level was determined based on morphological measurements[19],[41]. Aβ1-40 and GFAP immunostaining density was measured across four sections using ImageJ software (NIH, Bethesda, MD, USA). Quantification was blinded to treatment and genotype.
# [2] = cited from earlier work
# [3] = test system: proteolipid protein-synuclein mouse model; set-up: method as in PMID 27482103; conditions: proteolipid protein-synuclein mouse model of multiple systems atrophy; cited from earlier work
# all other caspases = test system: all other caspases; set-up: method as in PMID 30254377, PMID 17289835; conditions: cited from earlier work
# Aβ = Aβ immunostaining density and ELISA (RIPA- and FA-soluble); assay type: in vivo, mouse
# Protocol: as §1, §2, §3
# (§4) ELISA samples were prepared in RIPA described above. RIPA-insoluble pellets were further extracted in 70% formic acid (FA) in dH2O. FA was evaporated in a speed vacuum, and the resulting pellet was solubilized in 200 mM Tris-HCl, pH 7.5. IL-1β and Aβ levels (which include Aβ38, Aβ40 and Aβ42) were measured using Meso Scale Discovery ELISA kits (Rockville, MD, USA). Standards and samples were prepared according to the manufacturer’s protocols and run in duplicate.
# GFAP = GFAP astrogliosis (western blot, immunostaining); assay type: in vivo, mouse
# Protocol: as §1
# Mice for immunohistochemistry were isoflurane anesthetized and perfused with ice-cold 4% paraformaldehyde in 0.1 M PBS (Sigma-Aldrich). Brains were post-fixed overnight in 10% neutral-buffered formalin (ThermoFisher Scientific, ON, Canada) and transferred to 70% ethanol for paraffin embedding and sectioning at 4 μm. Tissue slides underwent heat-induced antigen retrieval with citrate or EDTA buffer. […]
# Iba1-positive microglia were quantified using a modified version of an area-specific counting frame. […] Microglial activation level was determined based on morphological measurements[19],[41]. Aβ1-40 and GFAP immunostaining density was measured across four sections using ImageJ software (NIH, Bethesda, MD, USA). Quantification was blinded to treatment and genotype.
# Twenty to sixty micrograms of protein or 16 μl of precipitated protein from culture medium were separated on SDS-PAGE or 4–12% NuPAGE Bis-Tris gels (Invitrogen, Carlsbad, CA, USA) with MES buffer (Invitrogen) and transferred onto PVDF membranes (Bio-Rad) according to the manufacturer’s instructions. […] Protein levels were normalized to β-actin and expressed as a percentage relative to the vehicle-treated WT group, except for APP which was compared to the vehicle-treated J20 group. […]
# IL-1β = IL-1β and IL-18 levels (PCR, western blot, ELISA); assay type: in vivo, mouse
# Protocol: as §1
# Twenty to sixty micrograms of protein or 16 μl of precipitated protein from culture medium were separated on SDS-PAGE or 4–12% NuPAGE Bis-Tris gels (Invitrogen, Carlsbad, CA, USA) with MES buffer (Invitrogen) and transferred onto PVDF membranes (Bio-Rad) according to the manufacturer’s instructions. Membranes were probed with the following antibodies: 1:1000 mouse anti-Aβ1-16 (6E10) (BioLegend, CA, USA), 1:2000 rabbit anti-APP C-terminus (A8717) (Sigma-Aldrich), 1:1000 rabbit anti-neprilysin (Nep, Abcam, ON, Canada), 1:500 rabbit anti-insulin degrading enzyme (IDE, Abcam), 1:3000 rabbit anti-GFAP (Dako), 1:1000 rabbit anti-IL-1β (Abcam), 1:1000 rat anti-Caspase-1 (clone 4B4.2.1, kindly provided by Genentech, San Francisco, CA, USA) and 1:1000 mouse anti-β-actin (Sigma-Aldrich). […] Signals were visualized with the ImageQuant LAS 4000 imaging system and densitometric analyses were performed with Image Gauge analysis software 3.0 (Fujifilm USA, NY, USA). Protein extracts from three independent mice in each group were run together on each blot. Protein levels were normalized to β-actin and expressed as a percentage relative to the vehicle-treated WT group, except for APP which was compared to the vehicle-treated J20 group. Representative full blots are shown in the Source data file.
# as §4
# Real-time PCR experiments were performed with SYBR Green Taq Mastermix (Quanta BioSciences, MD, USA) in a real-time cycler ABI 7500 Fast Block (Applied Biosystems, CA, USA). Primer sequences are described in the supplementary material. […]
smiles,measurement,setting,value
"CCO[C@@H]1OC(=O)C[C@@H]1NC(=O)[C@@H]1CCCN1C(=O)[C@@H](NC(=O)c1ccc(N)c(Cl)c1)C(C)(C)C [VX-765, (S)-1-((S)-2-{[1-(4-amino-3-chloro-phenyl)-methanoyl]-amino}-3,3-dimethyl-butanoyl)-pyrrolidine-2-carboxylic acid ((2R,3S)-2-ethoxy-5-oxo-tetrahydro-furan-3-yl)-amide]",full-length Casp1 levels (western blot),"[1]; J20 cortex, 20-week WO","reduced full-length Casp1 levels slightly compared to vehicle-treated J20 mice, but this did not reach statistical significance"
same,"Casp1, Casp6, Casp11 and Casp3 hippocampal mRNA levels",[1]; hippocampus,no differences were observed
same,"Nlrp1, Nlrp3 and Asc hippocampal mRNA levels","[1]; hippocampus, vehicle WT, vehicle J20, VX-765 J20",did not differ between the three treatment groups at any of the WO periods
same,"type III, amoeboid-appearing, microglia","Iba1-positive microglia; J20, 20-week WO",significantly higher in vehicle- and VX-765-treated J20 mice at 20-week WO
same,duration of reduced microglial activation,Iba1-positive microglia; J20 cortex,≤ 5 months
same,duration of reduced microglial activation,Iba1-positive microglia; J20 hippocampus,up to 4 months
same,microglial morphological profile (type I resting / type II activated),Iba1-positive microglia; J20 hippocampus and cortex,"reverted the profile in J20 mice back to a near WT profile at 4-week WO, but it slowly shifted from a resting to an activated state morphologically similar to vehicle-treated J20 mice from 12-week WO onwards"
same,Iba1-positive microglia numbers,"Iba1-positive microglia; J20 hippocampus and cortex, all WO periods","prevented this increase, normalizing Iba1-positive numbers to near WT levels, although numbers did not reach significance in the hippocampus at 8- and 20-week WO"
same,type IV microglia,"Iba1-positive microglia; J20 hippocampus, 20-week WO",elevated in the hippocampus of VX-765-treated J20 mice at 20-week WO
same,in vitro half-life (t1/2),[2],~ 157 h
same,alpha-synuclein toxicity,[3],protect against alpha-synuclein toxicity
same,specificity to Casp1,all other caspases,specificity to Casp1 against all other caspases
same,"FA-soluble Aβ42 levels, Aβ42/total Aβ ratio, cortical Aβ subtypes","Aβ; J20, 20-week WO","did not affect hippocampal Aβ42 levels and Aβ42/total Aβ ratio, or any Aβ subtype in the cortex"
same,Aβ staining density,"Aβ; J20 hippocampus and cortex, vs vehicle",significantly decreased Aβ staining density only in the cortex at 12-week WO
same,"RIPA-soluble Aβ38, Aβ40, Aβ42 or total Aβ levels","Aβ; J20 hippocampus or cortex, all WO periods, vehicle vs VX-765",no significant differences
same,formic acid (FA)-soluble total Aβ levels,"Aβ; J20 hippocampus or cortex, any WO period",did not differ between vehicle and VX-765 treatment
same,FA-soluble hippocampal Aβ38 and Aβ40 levels,"Aβ; J20 hippocampus, 20-week WO",increased FA-soluble hippocampal Aβ38 and Aβ40 levels at 20-week WO
same,RIPA-soluble Aβ42/total Aβ ratio,"Aβ; J20 hippocampus, 20-week WO",significantly higher in vehicle- compared to VX-765-treated hippocampus in J20 mice at 20-week WO
same,delay of GFAP astrogliosis,GFAP; J20,3 months
same,immunopositive GFAP astrogliosis,GFAP; J20 hippocampus and cortex,"prevented astrogliosis until 8- and 12-week WO in the hippocampus and cortex, respectively"
same,hippocampal GFAP levels (western blot),"GFAP; J20 hippocampus, 4- and 20-week WO",normalized with VX-765 treatment only at 20-week WO
same,active IL-1β levels (western blot),"IL-1β; J20 cortex, 20-week WO",normalized with VX-765 treatment at 20-week WO
same,Il-1β mRNA,"IL-1β; J20 hippocampus, 16-week WO",normalized with VX-765 treatment at 16-week WO
same,cortical IL-1β levels (ELISA),"IL-1β; cortex, any WO",did not differ between groups at any WO
same,total protein IL-1β levels (ELISA),"IL-1β; hippocampus, 4-, 12-, or 20-week WO",did not differ between treatment groups
